Where two headings read alike, the source gives them in different places.
Tests used:
[1] = system: THP1 macrophages; experiment: RT-PCR gene expression (TNF-α, TGF-β, IL-10) of THP1 macrophages on SP1 particles
[2] = system: primary macrophages; experiment: TNF-α release (ELISA) from primary macrophages on SP0.5 particles; type: cell-based, human; settings: dexamethasone ~25 to ~1.5625 μg/ml both time points; simvastatin about 250 to about 31.25 μg/ml at 1 day; nicotine either time point
[3] = system: THP1 macrophages; experiment: TNF-α release (ELISA) from THP1 macrophages seeded on SP1 particles, LPS plus drug; type: cell-based, human
Description: To assess inflammatory response, a large screen of cytokines and chemokines expressed and produced by THP1 differentiated cells and primary Mφs and DCs were analyzed. Their production and release into the media environment were evaluated using an ELISA sandwich technique. […] TNF-α cytokine release was selected in the experiments described herein because it is the common proinflammatory cytokine produced by Mφs as well as DCs. However, other inflammation-associated cytokines can also be measured.

[4] = system: THP1 macrophages
Description: The number of cells was determined, e.g., by counting the cells at the beginning of the experiment and by using the alamar blue method after the seeding. On the day the cells were seeded at the appropriate number, phorbo112-myristate 13-acetate (PMA) was added to the media at a final concentration of about 100 ng/ml to differentiate the THP-1 monocytes into THP-1 macrophages.

[5] = system: primary macrophages; experiment: RT-PCR gene expression (TNF-α, IL-1RA, IL-10) of primary macrophages on SP0.5 particles; type: cell-based, human; settings: 1 day
[6] = system: primary dendritic cells; experiment: RT-PCR gene expression (IL-1β, IL-1RA, IL-8) of primary dendritic cells on SP0.5 particles; type: cell-based, human
[7] = system: primary dendritic cells; experiment: TNF-α release (ELISA) from primary dendritic cells on SP0.5 particles; type: cell-based, human; settings: various concentrations, both time points
[8] = system: THP-1 monocytes; experiment: M1/M2 macrophage marker expression in THP-1 monocytes cultured on silk films functionalized with macrophage-skewing agent; type: cell-based, human
[9] = Release of INF-γ from INF-γ embedded silk films (ELISA); type: physicochemical
Description: An ELISA was run to show the release rate of INF-γ from the silk films. The films were made from a silk fibroin solution of about 10 μg/m and 0.2 ml used per film (for a total loading of about 2 μg INF-γ). Within one hour a large amount of INF-γ is released but as a percentage of the total loading it is small and by 4 days more INF-γ is released showing that there is a continued or constant release of INF-γ. While the levels of INF-γ release are low, they are physiologically relevant.
FIG. 23 is a line graph showing the release rate of INF-γ from the silk films. The silk films were made from a silk solution at a concentration of about 10 μg/m and about 0.2 ml of the silk solution was used per film (with a loading of about 2 μg INF-γ). As shown in the table of FIG. 23, within one hour an amount of about […] INF-γ was released, which is about 0.02% of the total loading. […] While the levels of INF-γ release appeared to be low, the level is physiologically relevant.

[10] = about 10 μg/ml INF-γ in silk films

C[C@@H]1C[C@H]2[C@@H]3CCC4=CC(=O)C=C[C@]4(C)[C@@]3(F)[C@@H](O)C[C@]2(C)[C@@]1(O)C(=O)CO [dexamethasone]
IL-10 fold change in expression (relative to positive control) ([1]; 1 day, dexamethasone about 12.5 μg/ml): above 1 fold

CN1CCCC1c1cccnc1 (centres unmarked) [nicotine]
TNF-α release compared to LPS control [2]: no significant decrease | TNF-α release compared to positive control (LPS), high concentrations ([3]; dexamethasone ~100 and ~50 μg/ml, simvastatin higher concentration, nicotine above 750 μg/ml, both time points): more TNF-α was released than the positive control | cytotoxicity (in words) ([4]; dexamethasone ~100 and ~50 μg/ml, simvastatin 250 μg/ml, nicotine 3 mg/ml, both time points): cytotoxic | cytotoxicity (in words) ([4]; nicotine ~1.5 mg/ml, 3 days): cytotoxic | effect on cell number versus positive and negative controls ([4]; non-cytotoxic nicotine concentrations): proliferative effect | TNF-α gene expression ([5]; dexamethasone, simvastatin 125 to 31.25 μg/ml, nicotine 187.5 and 93.75 μg/ml): downregulated | IL-10 gene expression ([5]; dexamethasone, simvastatin, nicotine about 750 to about 275 μg/ml): high | IL-1RA gene expression ([5]; simvastatin, nicotine about 750 to about 275 μg/ml): high | gene expression profile (anti-inflammatory or not) ([6]; 1 day, dexamethasone various concentrations, simvastatin ~62.5 μg/ml, nicotine about 46.87 to about 187.5 μg/ml): no anti-inflammatory profile | gene expression profile (anti-inflammatory or not) ([6]; 5 days): no anti-inflammatory profile | TNF-α release compared to LPS control [7]: the same as observed with macrophages | IL-10 gene expression ([1]; 1 day, dexamethasone vs media control, simvastatin vs positive control, nicotine vs controls): unregulated | TGF-β gene expression ([1]; 3 days, dexamethasone all concentrations except ~25 μg/ml, nicotine compared to same concentrations at 1 day): downregulated | TNF-α gene expression ([1]; 3 days, dexamethasone vs LPS control, nicotine vs negative control): higher than the negative control | IL-10 gene expression ([1]; 3 days, nicotine compared to same concentrations at 1 day): downregulated

CCC(C)(C)C(=O)O[C@H]1C[C@@H](C)C=C2C=C[C@H](C)[C@H](CC[C@@H]3C[C@@H](O)CC(=O)O3)[C@H]21 [simvastatin]
TNF-α release ([3]; simvastatin ~31.5 μg/ml and less): about 0.07 pg/ml

INF-γ: interferon-gamma loaded or embedded in silk films
CCL-18 (M2 macrophage marker) [8, 10]: upregulated | CD206 (M2 macrophage marker) relative to control [8, 10]: strongly downregulated | markers of M1 macrophage (CCL3 and CCR7) ([8]; about 10 μg/ml INF-γ loaded or embedded in silk films): up-regulated

B1: INF-γ: interferon-gamma loaded or embedded in silk films (protein, UniProt P01579 24-161, looked up)
Interferon gamma: QDPYVKEAENLKKYFNAGHSDVADNGTLFLGILKNWKEESDRKIMQSQIVSFYFKLFKNFKDDQSIQKSVETIKEDMNVKFFNSNKKKRDDFEKLTNYSVTDLNVQRKAIHELIQVMAELSPAAKTGKRKRSQMLFRG
continued INF-γ release ([9]; by day 4): More INF-γ was released | INF-γ released as share of the total loading ([9]; within one hour): about 0.02% | amount of INF-γ released from silk film ([9]; within one hour, loading about 2 μg INF-γ per film): about 400 μg/ml

— patent US20150010630A1, “FUNCTIONALIZATION OF BIOMATERIALS TO CONTROL REGENERATION AND INFLAMMATION RESPONSES” (TRUSTEES OF TUFTS COLLEGE, priority 2011, published 2015)
